This note sets out measurements from US7399492B2, “Composition and method for issue repair and regeneration” (priority 2001, dated 2008).

Molecules are shown by their SMILES.

Series [1] has as its system Salmonella strain TA100. As to the kind of experiment: Ames test, strain TA100. In kind it is cell-based. The settings on record: Positive Control/plate, 2 ul.
In series [2] the test system is Salmonella strain TA102 base substitutive mutation strain. In kind it is cell-based. Conditions: Positive Control/plate. How it is done: To test mutagenicity of the content of GI Capsules, Ames tests were conducted on four Salmonella strains: TA97a, TA98 frameshift mutation strain, TA100, and TA102 base substitutive mutation strain. Ames (1983) Mutation Research 113:173-215. Five genetic characteristics of these four strains were determined to meet the requirement for the testing. The content of GI Capsules at five concentrations was tested: 5 mg/plate, 2.5 mg/plate, 1.0 mg/plate, 0.5 mg/plate, 0.1 mg/plate. The negative control was PBS. […]

Series [3] has as its system Kunming mice. The settings on record: positive control 35 mg/kg.
Series [4] deals with Kunming mice. The settings on record: positive control 35 mg/kg. The source holds these as a separate data set.
Series [5] relates to Kunming mice constipated by diphenoxylate. As to the kind of experiment: Laxative effects on mouse models for constipation (diphenoxylate). It counts as in vivo. The settings on record: Positive control group, diphenoxylate 50 mg/kg alone. How it is done:
(§1) The content of GI Capsules was tested for laxative effects, i.e., the effects of the loosening the bowels to relieve constipation, on mouse models for constipation. Healthy Kunming mice were divided randomly into 5 groups, 20 in each group. […] The negative control group consists of 20 mice fed normally and the positive control group 20 mice fed with diphenoxylate at 50 mg/kg BW.
(§2) The test samples were diluted with distilled water into required concentrations and volume of 0.1 ml/10 g BW, and continuously administrated to the mice by oral gavage once a day for 14 days. The mice were fed with normal food during this period. On the last day of administration, mice were kept on fast for 24 hours overnight, but water was given. Then the content of GI Capsules were administered to mice in the three dosage groups by oral gavage. Twenty minutes later, diphenoxylate (50 mg/kg) was administered to all animals except those in the negative control group at the dosage of 0.1 ml/10 g. Ten minutes later, carbon ink (5% carbo activatus, 10% Arabic gum) was administered to all animals by oral gavage at the dosage of […]. All animals in each group were divided into two subgroups, 10 mice in each subgroup. One subgroup in each group was kept for observation of their dejection for 24 hours. The other was killed twenty minutes later and cut open the belly to measure the length of small intestine and the distance between pylorus and the front line of carbon ink to calculate carbon moving rates.

Series [6] in a line: Body weight of mice in the laxative study. In kind it is in vivo, mouse. Conditions: Positive control group (diphenoxylate 50 mg/kg BW). How it is done: as §1, §2

`COS(C)(=O)=O` [MMS]: the “Ames mutation data TA100 −S9” value in series [1] amounted to 1460.00. Also, the “Ames mutation data TA102 −S9” value in series [2] (2 ul) came out at 2960.00.
As for `O=P1(N(CCCl)CCCl)NCCCO1` (stereo not shown) [CP, cyclophosphamide], the “Micronucleus rate, Female” value in series [3] (female mice) was 21.2 ± 2.28 ‰. The “Micronucleus PCE, Female” value in series [3] (female mice, of 5000 PCE) is 106. The “Micronucleus rate, Male” value in series [3] (male mice) is 20.6 ± 2.41 ‰. For the same compound, the “Micronucleus PCE, Male” value in series [3] (male mice, of 5000 PCE) is on record as 103. In series [4], this compound displayed an Aberration rate of 20.80 ± 0.98%. In addition, the Aberrant sperm in series [4] (10 mice, of 10000 sperm) is given as 2080.
As to `Nc1ccc2cc3ccccc3cc2c1` [2-AA], in series [2] (12 ug), the “Ames mutation data TA102 +S9” value is 1411.00.
In series [5], `CCOC(=O)C1(c2ccccc2)CCN(CCC(C#N)(c2ccccc2)c2ccccc2)CC1` [diphenoxylate] registered a Carbon moving rate of 33.2 ± 10.5% and a First dejection time of 230.6 ± 56.0 min. In series [5] (24 hours observation), the “Total amounts of dejection” value worked out at 1.0 ± 0.2 g and the “Weight Dung grain” value turned out to be 16.4 ± 3.6 grain. Moreover, in series [6], the “Weight 0th day” value is listed as 19.5 ± 1.2, the “Weight 7th day” value worked out at 25.3 ± 0.9 and the “Weight 14th day” value is recorded as 29.2 ± 1.4.
